These results are taken from patent US6280715A, “Cosmetic composition useful notably for the skin whitening and melanogenesis inhibiting agent containing such a cosmetic composition” (Exsymol S.A.M., priority 1997, dated 2001).

In assay [1] the test system is S91 melanoma cells. Description: melanin content of UV-irradiated S91 melanoma cell cultures. The format is cell-based. Particulars: Mus musculus, S91, light or radiation study. As for the experimental part: The inhibiting activity on melanin, of the 1-amino-ethylphosphinic acid (Ia) is studied on S91 melanoma cells cultures.
The model of study was finalized by Gilchrest (1987).
The cultured cells are purchased from a Cloudman melanom.
As ordinary melanocytes, they respond to UV stimuli by an increase of melanogenesis.
The melanogenesis evaluation is made through the melanin content and the activity of enzymes involved in this metabolism: tyrosinase and dopa-tautomerase.
S91 cells are plated in P60 dishes at a density of […] per dish and maintained in Dubelcco's modified Eagle's medium and provided with 10% of calf serum. When the cells have reached about 50% of confluence, they are exposed to a UV irradiation of 10 mJ/cm^2 at 285±5 nm. During irradiation, the medium is replaced with a salin phosphate solution (PBS) to eliminate the forming of toxical derivatives. Immediately after irradiation, the PBS is replaced with fresh medium/7% of calf serum with or without the active agent. After a 16 hours incubation, the medium is replaced with ordinary medium with or without the active agent. […]
The melanin content is then determined: melanocytes are trypsinized, twice washed with PBS and dissolved in 0.8 ml of NaOH 1N, when strongly vortexed for 10-15 min and heated at 60-80° C. The melanin concentration is determined based on the absorbance at 475 nm.

Assay [2] relates to tyrosinase. Description: in vitro inhibition of melanin formation from L-DOPA by tyrosinase. The format is biochemical. The note with it: product diluted at 1.10^-3 mole.l^-1 (2 ml in mixture), pH 6.8, 4 hours at 37° C., optical density at 400 nm. The method, then: The reference used is the ascorbic acid in solution at 0.3.10^-3 mole l^-1.
2 ml of a L-DOPA solution, 1.25 ml of tyrosinase (2500 units/ml), 2 ml of product (Ia) diluted at 1.10^-3 mole.l^-1 are mixed together, and the mixture is completed with 20 ml of phosphate buffer (NaH2 PO4 0.1 mole l^-1 +Na2 HPO4 0.1 mole.l^-1, pH=6.8). The mixture is stirred for 4 hours at 37° C., then allowed to cool at room temperature for one night, shielded from light.
1 ml of concentrated hydrochloric acid is added and the mixture is centrifuged at 4000 rpm for 5 min. The pellet is washed with 10 ml of distilled water then centrifuged a second time. A reflux is made on the pellet with concentrated acid HCL 6N for 48 hours. The dried pellet is dissolved in 10 ml of toluene, exposed to ultrasounds for 2 min, put 2 hours at 37° C. then exposed to ultrasounds again for 5 min. The optical density is measured at 400 nm.

Turning to `CC(N)[PH](=O)O` (stereo not shown) [(Ia), 1-amino-ethylphosphinic acid], the inhibition at 500 µM in assay [1] (read-out: decrease of melanin rate in the cells) is 47.2%. The “percentage of inhibition of melanin” value in assay [2] turned out to be 46%. As to `CC(C)CC(N)[PH](=O)O` (stereo not shown) [(Ib), 1-amino-3-methylbutylphosphinic acid], in assay [2], the “percentage of inhibition of melanin” value was 44%.

Consider `O=c1cc(CO)occ1O` [kojic acid, reference compound], for which, in assay [1] (kojic acid at 3.3.10^-3 mole.l^-1, UV irradiation 10 mJ/cm^2, absorbance at 475 nm, read-out: decrease of melanin content in the cells), the inhibition at 3300 µM came to 45.2%.
